Patent US20240173329A1, “BELVARAFENIB FOR USE IN TREATMENT OF BRAIN CANCERS” (Genentech, Inc., priority 2021, published 2024)
Read-outs that look alike come from different tables or passages of the source.

What was measured:
[1] = Pharmacokinetic profile and brain distribution in mice after oral administration; type: in vivo, mice (ICR); settings: for Kp / Cmax / Tmax / AUC(0-t) / MRT last / half-life / AUC(0-inf): ICR (CD-1), mouse
Experimental: Example 1 evaluated pharmacokinetic profile and brain distribution of belvarafenib in mice after oral administration.
The mouse strain was ICR (CD-1®) supplied by Orient Bio Inc., Korea.
The mice were kept in conventional animal lab cages for 5 days for acclimation before the start of the experiment. The cages were polysulfone 1291H (W425×D266×H185 mm, Techniplast, Italy). Twelve mice were housed in each cage at a temperature of 22±2° C., a relative humidity of 50±20%, a ventilation frequency of 10-15 times/h, a 12 hour light/dark cycle, a light intensity of 150-300 Lux, at least weekly cage replacement. The mice were fed Picolab Rodent diet (5053, Lab Diet, USA) with abundant tap water.
The mice were dosed with belvarafenib dihydrochloride, 99.6% purity, that was stored at room temperature. Dosing was based on active ingredient free base and was corrected for assay and water content. The dosing vehicle was DMSO (5%), cremophore EL (5%), and deionized water (90%). Belvarafenib for dosing (28.08 mg) was dissolved in 14.40 mL of the vehicle for a final concentration of 1.950 mg/mL.
In a single one day dosing regimen, mice were fasted overnight. The body weight of the mice was measured on the day of treatment, from which dosing volumes were set. […] The mice were fed 4 hours post-dose.
Blood (0.3 mL) was collected from the retro-orbital plexus at 0.5, 1, 2, 4, 7, 24, 48, and 72 hours after belvarafenib administration. Plasma was obtained by centrifugation at 12,000 rpm for 2 minutes (Eppendorf) and then harvested and stored at −20° C. (Panasonic, MDF-U334-PK) until analysis.
After bloodletting of mice at each time point, the brain was collected immediately without perfusion. Brain tissue was washed one to two times with saline to remove surface blood. The brains were then trimmed. The collected brain tissue was accurately weighed and mixed with 4-fold saline based on brain weight (a final dilution factor of 5-fold). Each brain sample was then homogenized and placed in a 1.5 mL tube and stored at −20° C. (Panasonic, MDF-U334-PK) until analysis.
Plasma and brain of untreated animals were similarly obtained for use as a blank matrix.
Plasma and brain concentrations of belvarafenib determined by analysis using LC-MS/MS (Waters UPLC H-Class/Xevo TQ (Waters USA)).
Pharmacokinetic parameters of belvarafenib were calculated from plasma and brain concentration-time data by a non-compartmental method using Phoenix™ WinNonlin 8.1 (Certara, USA). The peak plasma and brain concentration (Cmax) and the corresponding time (Tmax) were directly obtained from the raw data. The area under the plasma curve (AUClast) was obtained by linear-log trapezoidal summation. Other PK parameters such as AUC from dosing time extrapolated to infinity (AUCinf), half-life (t1/2) and mean residence time (MTRlast) were calculated using WinNonlin. The plasma and brain concentrations of belvarafenib were presented as MEAN±S.D. The brain to plasma (B/P) ratio of Belvarafenib was calculated by dividing AUClast in the brain by AUClast in the plasma.

[2] = molecular target: T1, discoidin domain receptor tyrosine kinase 2 (DDR2) (Homo sapiens, UniProt Q16832); test: panel of 189 kinase assays; type: biochemical
T1 sequence (Q16832 22-855): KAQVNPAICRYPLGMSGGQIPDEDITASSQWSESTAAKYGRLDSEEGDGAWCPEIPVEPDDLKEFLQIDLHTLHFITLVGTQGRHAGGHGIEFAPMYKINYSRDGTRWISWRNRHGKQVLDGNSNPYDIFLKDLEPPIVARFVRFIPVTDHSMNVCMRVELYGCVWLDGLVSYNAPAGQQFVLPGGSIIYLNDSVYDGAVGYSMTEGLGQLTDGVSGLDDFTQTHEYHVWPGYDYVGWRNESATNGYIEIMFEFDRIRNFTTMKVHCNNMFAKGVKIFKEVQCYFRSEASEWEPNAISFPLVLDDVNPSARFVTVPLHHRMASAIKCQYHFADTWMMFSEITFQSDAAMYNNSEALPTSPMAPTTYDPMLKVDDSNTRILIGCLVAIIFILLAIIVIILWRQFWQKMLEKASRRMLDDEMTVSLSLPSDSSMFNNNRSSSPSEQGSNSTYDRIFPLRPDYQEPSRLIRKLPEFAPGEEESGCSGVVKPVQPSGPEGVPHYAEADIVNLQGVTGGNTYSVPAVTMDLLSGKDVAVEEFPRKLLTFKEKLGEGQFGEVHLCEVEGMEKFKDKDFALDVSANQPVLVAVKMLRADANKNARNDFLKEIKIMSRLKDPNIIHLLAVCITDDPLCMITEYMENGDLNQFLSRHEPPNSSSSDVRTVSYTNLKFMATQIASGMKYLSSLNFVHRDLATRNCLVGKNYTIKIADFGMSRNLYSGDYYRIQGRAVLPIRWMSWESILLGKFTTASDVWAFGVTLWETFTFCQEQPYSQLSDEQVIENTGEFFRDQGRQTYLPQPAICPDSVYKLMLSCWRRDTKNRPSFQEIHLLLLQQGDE

EPHA7 = EPHA7 (Homo sapiens, UniProt Q15375); test: panel of 189 kinase assays; type: biochemical
[3] = Phase I relative bioavailability and food effect study in healthy subjects; type: in vivo; settings: 200 mg single dose
Experimental: In another Phase I, single dose, randomized, crossover relative bioavailability and food effect study in healthy subjects, the influence of a formulation change from the Phase I to Phase II tablet on belvarafenib exposure was evaluated. A total of 18 healthy subjects were enrolled in the study and received the following randomized treatments: one 150-mg and one 50-mg Phase I tablet in a fed state, two 100-mg Phase II tablets in a fed state, or two 100-mg Phase II tablets in a fasted state, with an 18-day washout between treatments. There was a positive effect of food on belvarafenib exposure in the fed state compared to the fasted state.

[4] = molecular target: discoidin domain receptor tyrosine kinase 1 (DDR1) (Homo sapiens, UniProt Q08345); test: panel of 189 kinase assays; type: biochemical
Chain of discoidin domain receptor tyrosine kinase 1 (DDR1) (Q08345 19-913, species assumed): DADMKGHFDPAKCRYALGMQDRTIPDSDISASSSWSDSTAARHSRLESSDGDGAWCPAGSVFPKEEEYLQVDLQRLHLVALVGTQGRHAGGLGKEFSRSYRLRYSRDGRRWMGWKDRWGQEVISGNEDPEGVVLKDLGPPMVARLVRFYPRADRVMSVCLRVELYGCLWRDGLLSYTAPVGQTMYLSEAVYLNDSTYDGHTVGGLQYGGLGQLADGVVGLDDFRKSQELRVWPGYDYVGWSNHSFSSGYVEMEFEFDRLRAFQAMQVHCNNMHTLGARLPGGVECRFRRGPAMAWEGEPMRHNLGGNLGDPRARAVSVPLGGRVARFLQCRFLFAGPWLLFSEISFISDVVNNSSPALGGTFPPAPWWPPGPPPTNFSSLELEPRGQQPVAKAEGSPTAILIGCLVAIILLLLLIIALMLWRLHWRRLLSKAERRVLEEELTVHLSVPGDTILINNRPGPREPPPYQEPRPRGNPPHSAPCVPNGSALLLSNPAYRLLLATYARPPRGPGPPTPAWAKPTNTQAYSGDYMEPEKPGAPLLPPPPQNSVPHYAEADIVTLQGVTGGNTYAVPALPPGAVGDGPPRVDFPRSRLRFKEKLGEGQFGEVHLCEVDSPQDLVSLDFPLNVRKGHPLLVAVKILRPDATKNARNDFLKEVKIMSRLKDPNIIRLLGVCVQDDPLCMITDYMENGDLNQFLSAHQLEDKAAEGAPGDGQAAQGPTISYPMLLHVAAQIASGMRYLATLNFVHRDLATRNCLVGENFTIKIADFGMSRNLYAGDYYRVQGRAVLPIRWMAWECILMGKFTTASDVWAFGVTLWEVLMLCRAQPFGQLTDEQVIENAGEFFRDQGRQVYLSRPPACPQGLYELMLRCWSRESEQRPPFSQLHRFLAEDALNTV

Chain of EPHA7 (Q15375 28-998, species assumed): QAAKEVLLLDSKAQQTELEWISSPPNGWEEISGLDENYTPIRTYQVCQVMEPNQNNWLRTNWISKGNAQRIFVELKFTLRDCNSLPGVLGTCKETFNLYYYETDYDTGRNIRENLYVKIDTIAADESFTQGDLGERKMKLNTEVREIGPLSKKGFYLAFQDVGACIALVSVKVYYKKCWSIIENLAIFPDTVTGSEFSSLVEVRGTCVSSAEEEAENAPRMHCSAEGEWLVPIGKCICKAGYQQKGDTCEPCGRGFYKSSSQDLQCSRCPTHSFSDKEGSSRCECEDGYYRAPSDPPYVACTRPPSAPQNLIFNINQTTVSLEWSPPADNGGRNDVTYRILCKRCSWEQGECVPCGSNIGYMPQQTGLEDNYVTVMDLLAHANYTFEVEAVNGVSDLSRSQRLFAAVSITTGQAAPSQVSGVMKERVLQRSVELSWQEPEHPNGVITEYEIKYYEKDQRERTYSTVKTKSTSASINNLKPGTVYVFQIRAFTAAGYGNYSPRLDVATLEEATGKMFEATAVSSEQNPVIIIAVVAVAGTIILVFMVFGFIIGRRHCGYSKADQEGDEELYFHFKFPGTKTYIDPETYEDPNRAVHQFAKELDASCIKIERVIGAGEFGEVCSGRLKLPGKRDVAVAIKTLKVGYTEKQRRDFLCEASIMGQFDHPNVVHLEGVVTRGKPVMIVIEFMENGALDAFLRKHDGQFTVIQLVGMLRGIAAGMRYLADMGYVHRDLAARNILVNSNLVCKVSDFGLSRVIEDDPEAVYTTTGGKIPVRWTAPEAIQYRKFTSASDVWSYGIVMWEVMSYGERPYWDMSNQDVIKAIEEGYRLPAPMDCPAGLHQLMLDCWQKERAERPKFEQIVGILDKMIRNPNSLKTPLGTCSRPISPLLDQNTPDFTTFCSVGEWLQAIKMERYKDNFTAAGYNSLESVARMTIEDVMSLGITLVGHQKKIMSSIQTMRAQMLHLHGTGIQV

Cc1ccc2c(Nc3cccc(Cl)c3F)nccc2c1NC(=O)c1csc2c(N)ncnc12 [Belvarafenib, 4-amino-N-(1-((3-chloro-2-fluorophenyl)amino)-6-methylisoquinolin-5-yl)thieno[3,2-d]pyrimidine-7-carboxamide]
Kp ([1]; oral 30 mg/kg, AUClast brain / AUClast plasma, read-out: B/P ratio): 0.8
Cmax ([1]; oral 30 mg/kg, brain): 6100 ng/g
Tmax ([1]; oral 30 mg/kg, brain): 7 h
AUC(0-t) ([1]; oral 30 mg/kg, plasma): 133 µg·h/mL
Cmax ([1]; oral 30 mg/kg, plasma): 6210 ng/mL
Tmax ([1]; oral 30 mg/kg, plasma): 7 h
Kp ([1]; male, brain/plasma, oral, 15 mg/kg, read-out: B/P): 0.93
MRT last ([1]; male, in vivo, oral 15 mg/kg, plasma): 14.3 h
Kp ([1]; male, oral 15 mg/kg, AUClast brain / AUClast plasma, read-out: B/P ratio): 0.929
Cmax ([1]; male, oral 15 mg/kg, brain): 5240 ng/g
MRT last ([1]; male, oral 15 mg/kg, brain): 11.8 h
Tmax ([1]; male, oral 15 mg/kg, brain): 7 h
half-life ([1]; male, oral 15 mg/kg, brain): 6.3 h
AUC(0-inf) ([1]; male, oral 15 mg/kg, plasma): 84.3 µg·h/mL
AUC(0-t) ([1]; male, oral 15 mg/kg, plasma): 84.3 µg·h/mL
Cmax ([1]; male, oral 15 mg/kg, plasma): 4780 ng/mL
Tmax ([1]; male, oral 15 mg/kg, plasma): 4 h
half-life ([1]; male, oral 15 mg/kg, plasma): 6.6 h
AUC(0-inf) ([1]; male, oral 30 mg/kg, plasma): 133 µg·h/mL
AUC(0-t) ([1]; male, oral 30 mg/kg, plasma): 133 µg·h/mL
AUCinf ([1]; oral 15 mg/kg, brain): 78297.5 ng·h/g
AUClast ([1]; oral 15 mg/kg, brain): 78259.6 ng·h/g
AUCinf ([1]; oral 30 mg/kg, brain): 100848.0 ng·h/g
AUClast ([1]; oral 30 mg/kg, brain): 100735.8 ng·h/g
general clinical signs ([1]; single oral 15 mg/kg, pre- and post-dosing periods): No clinical signs were observed
inhibition at 1 µM [2]: > 90%
inhibition at 1 µM (EPHA7): > 90%
AUC0-inf increase, fed state compared to fasted state [3]: ~2.8 fold
Cmax increase, fed state compared to fasted state [3]: approximately 2.2 fold
adverse events [3]: No serious adverse events, adverse events of special interest, or deaths were reported
inhibition at 1 µM [4]: > 90%
